In paper PMC10215804, “Exploring Alternative Pathways to Target Bacterial Type II Topoisomerases Using NBTI Antibacterials: Beyond Halogen-Bonding Interactions” (Antibiotics, 2023):
Read-outs that look alike come from different tables or passages of the source.

Tests used:
human topoisomerase IIα = target: T1, human topoisomerase IIα (Homo sapiens, UniProt P11388); experiment: human topoisomerase II alpha relaxation high-throughput assay (selectivity); format: biochemical; settings: residual activity at 100 µM compound; mean ± SD, two independent experiments; read-out: Human TopoIIα (% RA at 100 µM)
T1 construct: purchased Inspiralis (Norwich, UK)
Method: For selectivity determination, a human topoisomerase II alpha relaxation high-throughput assay was used. The assay kits and black streptavidin-coated 96-well microtiter plates are available from Inspiralis (Norwich, UK). Two independent measurements were performed with an inhibitory concentration of 100 µM. Raw data were calculated as the mean ± SD percentage of the residual enzyme activity.

[1] = Metabolic activity assessment (cytotoxicity), CellTiter 96 Aqueous One; format: cell-based; settings: human, 72 h treatment, means of three independent measurements ± SD
Method: HUVEC (ATCC® CRL-1730™) and HepG2 (ATCC® HB-8065™) cell lines were cultured in Dulbecco’s Modified Eagle Medium (DMEM; Sigma-Aldrich, St. Louis, MO, USA) supplemented with 10% heat-deactivated FBS (Gibco, Grand Island, NE, USA), 2 mM L-glutamine, 100 U/mL penicillin, 100 μg/mL streptomycin (all from Sigma-Aldrich, St. Louis, MO, USA) in a humidified chamber at 37 °C and 5% CO2. The experiments were carried out on passages 4–7 for both cell lines. The tested compounds were dissolved in DMSO and further diluted in culture medium to a desired final concentration. The cells were then seeded into 96-well plates at 5 × 10^4 cells/mL (100 μL/well) or 8 × 10^4 cells/mL (100 μL/well) for HUVEC and HepG2, respectively. The cells were then incubated for 24 h to allow attachment onto the wells. The cells were treated with 1 μM and 50 μM of each compound of interest, or the corresponding vehicle as control. […] Their metabolic activity was assessed after 72 h treatment using a CellTiter 96 Aqueous One Solution Cell Proliferation Assay (Promega, Madison, WI, USA), in accordance with the manufacturer’s instructions. The absorbance was measured at 492 nm on an automated microplate reader, Tecan Spark (Tecan Group Ltd., Männedorf, CH, Switzerland). Data are presented as the percentage of metabolic activity of control cells stimulated with vehicle, or as an IC50 value (mean ± SD) from three independent experiments, each conducted in triplicate (for screening) or duplicate (for IC50 determination). IC50 values were calculated using a non-linear regression model and with Graph Pad Prism 9 software.

S. aureus topoIV = target: T2, S. aureus topoIV (Staphylococcus aureus, UniProt P0C1U9); experiment: biochemical; settings: relaxation inhibition; mean of two independent measurements ± SD
T2 construct: purchased Inspiralis (Norwich, UK)
Method: (§1) To determine the IC50 values of the compounds for S. aureus and E. coli, a DNA gyrase supercoiling high-throughput plate assay and a topoIV relaxation high-throughput plate assay were performed. Assay kits and black streptavidin-coated 96-well microtiter plates are available from Inspiralis (Norwich, UK). For pre-screening, an inhibitor concentration of 100 μM was used. […] A nonlinear regression-based fit of the inhibition curves was used, with the log [inhibitor] versus slope of the reaction variables (four parameters) and a symmetric equation. […] To determine IC50 values, two independent repetitions were performed and the average was calculated.

S. aureus DNA gyrase = target: T3, S. aureus DNA gyrase (Staphylococcus aureus, UniProt P20831); experiment: biochemical; settings: supercoiling inhibition; mean of two independent measurements ± SD
T3 construct: purchased Inspiralis (Norwich, UK)
Method: as §1

E. coli DNA gyrase = target: T4, E. coli DNA gyrase (Escherichia coli, UniProt P0AES4); experiment: DNA gyrase supercoiling inhibition assay (high-throughput plate assay); format: biochemical
T4 construct: purchased Inspiralis (Norwich, UK)
Method: as §1

E. faecalis RDK 057 = experiment: MIC, broth microdilution; format: cell-based
Method: (§2) For the determination of minimum inhibitory concentrations (MIC), the broth microdilution method was used in 96-well plate format, according to the guidelines of the Clinical and Laboratory Standards Institute and the recommendations of the European Committee on Antimicrobial Susceptibility Testing (EUCAST). The dilutions of the bacterial suspension of the specific bacterial strain, corresponding to the 0.5 McFarland turbidity standard, were prepared with […] Mueller–Hinton broth with TES (Thermo Fisher Scientific) to obtain an end inoculum of 10^5 CFU/mL. The compounds were dissolved in DMSO and mixed with the inoculum. […] The MIC was determined as the lowest concentration of antibiotic that prevented visible bacterial growth. Tetracycline was used as a positive control on each test plate.

K. pneumoniae = experiment: MIC, broth microdilution; format: cell-based
Method: as §2

P. aeruginosa RDK 184 = experiment: MIC, broth microdilution; format: cell-based
Method: as §2

S. aureus (ATCC 29213) = experiment: MIC, broth microdilution; format: cell-based; settings: Staphylococcus aureus
Method: as §2

E. coli N43 (CGSC# 5583) = experiment: MIC, broth microdilution; format: cell-based; settings: Escherichia coli
Method: as §2

E. coli ESBL QA-11.3 = experiment: MIC, broth microdilution; format: cell-based; settings: Escherichia coli
Method: as §2

A. baumannii = experiment: MIC, broth microdilution; format: cell-based
Method: as §2

E. coli D22 = experiment: MIC, broth microdilution; format: cell-based; settings: Escherichia coli
Method: as §2

E. coli (ATCC 25922) = experiment: MIC, broth microdilution; format: cell-based
Method: as §2

E. coli topoIV = target: T5, E. coli topoIV (Escherichia coli, UniProt P0AFI2); experiment: topoIV relaxation inhibition assay (high-throughput plate assay); format: biochemical
T5 construct: purchased Inspiralis (Norwich, UK)
Method: as §1

VRE = experiment: MIC, broth microdilution; format: cell-based; settings: Enterococcus
Method: as §2

MRSA (QA-11.7) = experiment: MIC, broth microdilution; format: cell-based, S. aureus; settings: Staphylococcus aureus
Method: as §2

MRSA (QA-11.2) = experiment: MIC, broth microdilution; format: cell-based, S. aureus; settings: Staphylococcus aureus
Method: as §2

MRSA(QA-12.1) = experiment: MIC, broth microdilution; format: cell-based, S. aureus; settings: Staphylococcus aureus
Method: as §2

[2] = read-out: MIC E. coli N43 (CGSC# 5583)

T4 sequence (P0AES4 whole entry): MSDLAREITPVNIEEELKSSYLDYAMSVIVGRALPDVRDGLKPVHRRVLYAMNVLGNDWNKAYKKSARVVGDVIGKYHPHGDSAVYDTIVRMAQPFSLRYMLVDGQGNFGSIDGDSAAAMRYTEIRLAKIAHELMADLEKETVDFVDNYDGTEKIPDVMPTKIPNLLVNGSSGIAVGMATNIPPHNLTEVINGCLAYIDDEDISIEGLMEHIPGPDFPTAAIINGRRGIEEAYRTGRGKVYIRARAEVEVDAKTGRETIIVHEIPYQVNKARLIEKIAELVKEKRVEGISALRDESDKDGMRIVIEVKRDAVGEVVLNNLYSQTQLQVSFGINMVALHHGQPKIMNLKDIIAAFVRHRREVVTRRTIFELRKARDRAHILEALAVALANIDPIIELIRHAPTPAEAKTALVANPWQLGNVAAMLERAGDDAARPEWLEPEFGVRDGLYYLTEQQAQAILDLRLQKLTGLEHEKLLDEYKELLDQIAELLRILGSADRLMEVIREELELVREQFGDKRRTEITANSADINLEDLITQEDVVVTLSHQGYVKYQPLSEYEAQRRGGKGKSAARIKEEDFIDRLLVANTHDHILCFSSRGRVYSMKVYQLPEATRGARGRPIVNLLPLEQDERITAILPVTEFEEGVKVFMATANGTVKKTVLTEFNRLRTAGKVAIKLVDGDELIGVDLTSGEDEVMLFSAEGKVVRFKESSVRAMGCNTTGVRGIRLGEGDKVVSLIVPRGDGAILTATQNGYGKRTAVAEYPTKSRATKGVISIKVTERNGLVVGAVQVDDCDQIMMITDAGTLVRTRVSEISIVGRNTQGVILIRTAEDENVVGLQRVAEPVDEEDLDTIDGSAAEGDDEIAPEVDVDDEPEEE
T2 sequence (P0C1U9 whole entry): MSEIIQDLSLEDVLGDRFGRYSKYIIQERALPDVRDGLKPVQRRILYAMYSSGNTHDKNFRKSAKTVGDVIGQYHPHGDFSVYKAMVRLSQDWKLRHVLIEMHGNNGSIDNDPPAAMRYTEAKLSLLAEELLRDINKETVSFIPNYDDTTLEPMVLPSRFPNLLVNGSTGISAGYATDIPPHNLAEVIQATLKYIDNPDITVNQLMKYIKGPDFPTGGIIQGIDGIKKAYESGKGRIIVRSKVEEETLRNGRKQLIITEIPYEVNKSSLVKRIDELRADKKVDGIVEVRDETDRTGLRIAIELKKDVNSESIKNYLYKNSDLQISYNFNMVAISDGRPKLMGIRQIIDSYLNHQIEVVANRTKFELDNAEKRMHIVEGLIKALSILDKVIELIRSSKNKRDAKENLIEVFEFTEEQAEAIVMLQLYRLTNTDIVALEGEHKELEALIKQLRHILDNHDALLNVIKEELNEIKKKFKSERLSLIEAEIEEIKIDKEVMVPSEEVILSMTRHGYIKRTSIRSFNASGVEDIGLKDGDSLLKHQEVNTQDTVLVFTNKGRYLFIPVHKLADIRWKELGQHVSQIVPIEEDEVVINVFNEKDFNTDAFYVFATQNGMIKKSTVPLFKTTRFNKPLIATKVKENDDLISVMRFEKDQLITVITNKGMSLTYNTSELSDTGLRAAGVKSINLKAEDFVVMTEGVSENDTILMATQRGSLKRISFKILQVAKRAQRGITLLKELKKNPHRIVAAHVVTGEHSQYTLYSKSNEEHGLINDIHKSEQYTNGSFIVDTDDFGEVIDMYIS
T2 sequence (P0C1S7 whole entry partner): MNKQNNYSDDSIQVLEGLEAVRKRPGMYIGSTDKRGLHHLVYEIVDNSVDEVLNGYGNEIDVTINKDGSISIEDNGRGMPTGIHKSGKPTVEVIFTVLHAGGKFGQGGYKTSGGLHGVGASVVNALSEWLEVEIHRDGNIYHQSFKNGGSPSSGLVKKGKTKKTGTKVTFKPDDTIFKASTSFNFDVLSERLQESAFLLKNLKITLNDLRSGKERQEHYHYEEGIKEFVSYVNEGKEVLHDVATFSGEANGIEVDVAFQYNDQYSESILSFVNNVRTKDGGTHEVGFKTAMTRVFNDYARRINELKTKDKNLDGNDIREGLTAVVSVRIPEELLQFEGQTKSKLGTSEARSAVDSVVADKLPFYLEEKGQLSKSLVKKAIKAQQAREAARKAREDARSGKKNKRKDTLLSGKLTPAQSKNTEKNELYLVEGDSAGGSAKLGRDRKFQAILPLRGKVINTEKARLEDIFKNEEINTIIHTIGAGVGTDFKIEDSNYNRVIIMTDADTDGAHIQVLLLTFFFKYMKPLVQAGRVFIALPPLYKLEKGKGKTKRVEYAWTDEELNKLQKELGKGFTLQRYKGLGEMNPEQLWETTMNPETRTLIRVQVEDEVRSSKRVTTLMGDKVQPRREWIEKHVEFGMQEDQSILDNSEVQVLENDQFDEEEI
T1 sequence (P11388 whole entry): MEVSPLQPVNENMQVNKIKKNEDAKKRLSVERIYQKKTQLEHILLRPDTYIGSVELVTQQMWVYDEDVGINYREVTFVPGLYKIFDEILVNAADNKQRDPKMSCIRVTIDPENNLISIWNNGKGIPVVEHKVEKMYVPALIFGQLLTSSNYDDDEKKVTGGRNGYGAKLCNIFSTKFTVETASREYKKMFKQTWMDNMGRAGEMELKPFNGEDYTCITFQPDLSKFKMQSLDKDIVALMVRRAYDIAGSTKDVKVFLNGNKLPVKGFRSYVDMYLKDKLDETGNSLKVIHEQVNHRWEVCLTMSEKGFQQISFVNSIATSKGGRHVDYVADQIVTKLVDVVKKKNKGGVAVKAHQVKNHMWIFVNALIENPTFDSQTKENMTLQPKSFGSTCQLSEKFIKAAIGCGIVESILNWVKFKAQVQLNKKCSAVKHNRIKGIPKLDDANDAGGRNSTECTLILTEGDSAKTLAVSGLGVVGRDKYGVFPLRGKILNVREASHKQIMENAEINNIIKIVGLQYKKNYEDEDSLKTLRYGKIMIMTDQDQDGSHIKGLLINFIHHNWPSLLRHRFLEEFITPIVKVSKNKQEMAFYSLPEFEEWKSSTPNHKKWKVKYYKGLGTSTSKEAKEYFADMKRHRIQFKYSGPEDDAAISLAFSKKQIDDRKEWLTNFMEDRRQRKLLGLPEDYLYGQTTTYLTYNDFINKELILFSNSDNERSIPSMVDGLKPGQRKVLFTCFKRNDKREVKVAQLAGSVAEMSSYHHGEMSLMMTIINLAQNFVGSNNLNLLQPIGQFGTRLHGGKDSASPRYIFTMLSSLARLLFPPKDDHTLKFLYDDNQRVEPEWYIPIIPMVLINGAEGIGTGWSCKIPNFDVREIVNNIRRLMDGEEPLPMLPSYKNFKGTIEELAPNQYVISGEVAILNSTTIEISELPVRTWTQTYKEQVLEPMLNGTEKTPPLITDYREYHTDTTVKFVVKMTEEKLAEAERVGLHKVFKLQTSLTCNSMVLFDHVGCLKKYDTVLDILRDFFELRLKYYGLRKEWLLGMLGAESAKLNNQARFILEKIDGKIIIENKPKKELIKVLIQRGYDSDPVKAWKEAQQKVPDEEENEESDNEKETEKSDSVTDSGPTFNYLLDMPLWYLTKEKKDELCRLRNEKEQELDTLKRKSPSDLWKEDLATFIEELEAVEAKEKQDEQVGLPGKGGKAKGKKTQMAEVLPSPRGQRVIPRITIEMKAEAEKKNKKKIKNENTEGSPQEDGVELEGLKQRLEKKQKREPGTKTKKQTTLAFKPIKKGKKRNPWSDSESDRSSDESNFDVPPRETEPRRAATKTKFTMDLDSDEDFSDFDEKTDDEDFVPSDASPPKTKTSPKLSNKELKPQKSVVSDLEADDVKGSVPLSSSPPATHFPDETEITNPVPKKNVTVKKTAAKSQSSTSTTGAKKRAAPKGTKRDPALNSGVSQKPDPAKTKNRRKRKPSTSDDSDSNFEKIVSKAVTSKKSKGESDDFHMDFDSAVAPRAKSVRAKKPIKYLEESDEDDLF

COc1ccc2nccc(OCC3CCC(NCc4ccc(N)cc4)CO3)c2n1 (centres unmarked) [Compound 11, N-(4-Aminobenzyl)-6-(((6-methoxy-1,5-naphthyridin-4-yl)oxy)methyl)tetrahydro-2H-pyran-3-amine]
remaining activity at 100 µM (human topoisomerase IIα): 100%
IC50 at 72 h ([1]; HUVEC cells (ATCC CRL-1730)): > 50 µM
IC50 at 72 h ([1]; HepG2 cells (ATCC HB-8065)): > 50 µM
IC50 (S. aureus topoIV): > 100 µM
IC50 (S. aureus DNA gyrase): > 100 µM
IC50 (E. coli DNA gyrase): > 100 µM
MIC (E. faecalis RDK 057; Enterococcus faecalis, RDK057, read-out: MIC (μM) E. faecalis DRK 057): > 328 µM
MIC (E. faecalis RDK 057; Enterococcus faecalis, RDK057, read-out: MIC E. faecalis RDK 057): > 128 µg/mL
MIC (K. pneumoniae; Klebsiella pneumoniae, 20 h, read-out: MIC (μM) K. pneumoniae): > 328 µM
MIC (K. pneumoniae; Klebsiella pneumoniae, read-out: MIC K. pneumoniae): > 128 µg/mL
MIC (P. aeruginosa RDK 184; Pseudomonas aeruginosa, RDK184, 20 h, read-out: MIC (μM) P. aeruginosa RDK 184): > 328 µM
MIC (P. aeruginosa RDK 184; Pseudomonas aeruginosa, RDK184, read-out: MIC P. aeruginosa RDK 184): > 128 µg/mL
MIC (S. aureus (ATCC 29213); ATCC29213, 20 h, read-out: MIC (μM) S. aureus (ATCC 29213)): > 328 µM
MIC (S. aureus (ATCC 29213); ATCC29213, read-out: MIC S. aureus (ATCC 29213)): > 128 µg/mL
MIC (E. coli N43 (CGSC# 5583); 20 h, read-out: MIC (μM) E. coli N43): > 328 µM
MIC (E. coli N43 (CGSC# 5583); [2]): > 128 µg/mL
MIC (E. coli ESBL QA-11.3; ESBLQA11.3, 20 h, read-out: MIC (μM) E. coli ESBL QA:11.3): > 328 µM
MIC (E. coli ESBL QA-11.3; ESBLQA11.3, read-out: MIC E. coli ESBL QA-11.3): > 128 µg/mL
MIC (A. baumannii; Acinetobacter baumannii, 20 h, read-out: MIC (μM) A. baumannii): > 328 µM
MIC (A. baumannii; Acinetobacter baumannii, read-out: MIC A. baumannii): > 128 µg/mL
MIC (E. coli D22; D22, 20 h, read-out: MIC (μM) E. coli D22): > 328 µM
MIC (E. coli D22; D22, read-out: MIC E. coli D22): > 128 µg/mL
MIC (E. coli (ATCC 25922); Escherichia coli, ATCC25922, 20 h, read-out: MIC (μM) E. coli (ATCC 25922)): > 328 µM
MIC (E. coli (ATCC 25922); Escherichia coli, ATCC25922, read-out: MIC E. coli (ATCC 25922)): > 128 µg/mL
IC50 (E. coli topoIV): > 100 µM

O=c1ccc2ncc(=O)n3c2n1C[C@H]3CN1CCC(NCc2cc3c(cn2)OCCC3)CC1 [Gepo, gepotidacin, reference compound]
MIC (E. faecalis RDK 057; Enterococcus faecalis, RDK057; Table S3; read-out: MIC (μM) E. faecalis DRK 057): 5.12 µM
MIC (E. faecalis RDK 057; Enterococcus faecalis, RDK057; read-out: MIC E. faecalis RDK 057): 2 µg/mL
MIC (K. pneumoniae; Klebsiella pneumoniae; Table S3; read-out: MIC (μM) K. pneumoniae): 20.5 µM
MIC (K. pneumoniae; Klebsiella pneumoniae; read-out: MIC K. pneumoniae): 8 µg/mL
MIC (VRE; Table S3, read-out: MIC (μM) VRE): 2.56 µM
MIC (VRE; read-out: MIC VRE): 1 µg/mL
MIC (P. aeruginosa RDK 184; Pseudomonas aeruginosa, RDK184; Table S3; read-out: MIC (μM) P. aeruginosa RDK 184): 20.5 µM
MIC (P. aeruginosa RDK 184; Pseudomonas aeruginosa, RDK184; read-out: MIC P. aeruginosa RDK 184): 8 µg/mL
MIC (S. aureus (ATCC 29213); ATCC29213, Table S3, read-out: MIC (μM) S. aureus (ATCC 29213)): 0.32 µM
MIC (E. coli N43 (CGSC# 5583); read-out: MIC (μM) E. coli N43): 0.041 µM
MIC (E. coli N43 (CGSC# 5583); [2]): 0.016 µg/mL
MIC (A. baumannii; Acinetobacter baumannii; Table S3; read-out: MIC (μM) A. baumannii): 20.5 µM
MIC (A. baumannii; Acinetobacter baumannii; read-out: MIC A. baumannii): 8 µg/mL
MIC (E. coli D22; D22, Table S3, lpxC mutation, read-out: MIC (μM) E. coli D22): 0.32 µM
MIC (E. coli (ATCC 25922); Escherichia coli, ATCC25922; Table S3; read-out: MIC (μM) E. coli (ATCC 25922)): 2.56 µM
MIC (E. coli (ATCC 25922); Escherichia coli, ATCC25922; read-out: MIC E. coli (ATCC 25922)): 1 µg/mL
MIC (MRSA (QA-11.7); Table S3, read-out: MIC (μM) MRSA (QA-11.7)): 0.161 µM
MIC (MRSA (QA-11.7); strain resistant to cefoxitin, ciprofloxacin, clindamycin, erythromycin, tetracycline, thiamulin, trimethoprim, read-out: MIC MRSA (QA-11.7)): 0.063 µg/mL
MIC (MRSA (QA-11.2); Table S3, read-out: MIC (μM) MRSA (QA-11.2)): 1.28 µM
MIC (MRSA (QA-11.2); read-out: MIC MRSA (QA-11.2)): 0.5 µg/mL
MIC (MRSA(QA-12.1); Table S3, read-out: MIC (μM) MRSA(QA-12.1)): 0.32 µM
MIC (MRSA(QA-12.1); strain resistant to cefoxitin, gentamicin, kanamycin, rifampicin, streptomycin, sulfamethoxazole, tetracycline, read-out: MIC MRSA(QA-12.1)): 0.125 µg/mL
